≈ marks a conversion by molar mass, not a printed value.
How the values were obtained:
Escherichia coli = assay: In vitro bacterial susceptibility assay, wild type E. coli; type: cell-based; conditions: for Susceptibility of E. coli to nucleoside analog (growth inhibition): in vitro, Luria broth, 37° C.
Experimental: (§1) 1-(2′-deoxy-2′-fluoro-β-D-arabinofuranosyl)-5-iodouracil (FIAU) (Moravek catalog no. M251) and penciclovir (Moravek catalog no. M972) were purchased from Moravek Biochemicals (Brea, Calif.). Zidovudine was purchased from Glaxo Wellcome. Bacterial susceptibility tests were performed in 96-well microtiter plates (VWR Scientific), with serial dilutions of drug placed in each well. Each well was inoculated with Escherichia coli (Yale University E. coli Genetic Stock Center, New Haven, Conn.) and grown in Luria broth (Invitrogen) at 37° C. E. coli TK mutants were generated by selecting for spontaneously resistant colonies on plates containing 1 mg/ml Zidovudine. Ten resistant clones were selected and screened for deletions in the TK gene by using the PCR primers SZ46-eTKKO20F and (5′-[…]-3′ (SEQ ID NO: 1)) SZ49-eTK-K0789R (5′-ATCAAGACGCAGCACCATG-3′ (SEQ ID NO: 2)). […] As a control for integrity of the DNA of this clone, its 16S rRNA gene was amplified by using the primers SZ-16S-Ecoli993F (5′-ACATCCACGGAAGTTT-TCAG-3′ (SEQ ID NO: 3)) SZ 16S-Ecoli454R (5′-CCGAAGGTTAAGC-TACCTAC-3′ (SEQ ID NO: 4)).
To determine whether endogenous bacterial TK could provide a reporter enzyme suitable for imaging, the susceptibility of E. coli to a variety of common nucleoside analogs was examined in vitro.
(§2) In vitro susceptibility tests were performed on C. novyi-NT using 96 well plates containing two-fold serial dilutions of FIAU (Moravek Biochemicals) in reinforced clostridial media (Difco). Approximately, 10^5-10^6 bacteria were inoculated into each well and incubated at 37 C. overnight in an anaerobic chamber. C. novyi-NT growth was measured using an OD600. In order to test the mechanism of action of FIAU on bacteria, the thymidine kinase (TK) gene in E. coli was knocked out. An in vitro FIAU susceptibility test comparing wild type E. coli with the mutant TK deficient E. coli was preformed. 96 well plates were used containing two-fold serial dilutions of FIAU in Lauria Broth. Approximately, 10^5-10^6 bacteria were inoculated into each well and incubated at 37 C. overnight. Growth was measured using OD600.

C. novyi-NT [1] = assay: In vitro susceptibility test on C. novyi-NT; type: cell-based, Clostridium novyi-NT; conditions: reinforced clostridial media, overnight, anaerobic, OD600
Experimental: as §2

TK deficient E. coli = assay: In vitro bacterial susceptibility assay, TK-deleted E. coli; type: cell-based, Escherichia coli; conditions: for Susceptibility of TK gene-deleted E. coli derivative: in vitro
Experimental: as §1
To determine whether the TK gene was responsible for this sensitivity, a derivative of E. coli in which the TK gene was deleted was created. […] Because FIAU can be radiolabeled by using commercially available reagents and has been successfully used to image tumor cells transfected with HSV1-TK, it was elected to test its potential for imaging bacterial infections.
as §2, with “96 well plates were used containing two-fold serial dilutions of FIAU in Lauria Broth. Approximately, 10^5-10^6 bacteria were inoculated into each well and incubated at 37 C. overnight.” left out

S. aureus 25923 = assay: Minimal number of bacteria that could be imaged in mouse thigh; type: in vivo, Staphylococcus aureus; conditions: 1 h after bacterial injection
Experimental: (§3) E. coli strains or clinical isolates from the Johns Hopkins Hospital Microbiology Laboratory, including Staphylococcus aureus 29213 and 25923, Streptococcus pneumoniae 49619, Enterococcus faecalis 49532, and Staphylococcus epidermidis F362, were used to create experimental infections. Bacteria were grown to log phase in Mueller Hinton Broth with Cations (Remel, Lenexa, Kans.) or BBL Todd Hewitt Broth (Becton Dickinson). Localized infections were generated by injecting 1×10^9 E. coli and ≈1×10^8 of the other bacterial strains into mouse thighs. […] To quantify the minimal number of bacteria required to generate signals upon imaging, mice were injected in the thigh with various amounts of S. aureus 25923. One hour later, the mice were killed, the muscles were harvested and homogenized, and the extracts spread on blood agar plates (Becton Dickinson) for colony counting.
To determine the minimal number of bacteria that could be imaged with this approach, various numbers of S. aureus 25923 were injected into mouse thighs. One hour later, the thigh tissue was excised, homogenized, and spread on blood agar plates. The 1-h time point was chosen because this was the earliest time point at which injections of [^125I]FIAU consistently produced discernable scintigraphic images of infectious foci. As few as 2×10^6 colony-forming units per gram of muscle tissue produced discernable signals.

[2] = system: E. faecalis, S. aureus, S. epidermidis, and S. pneumoniae; assay: Time course of imaging of infections caused by pathogenic bacteria in mice; type: in vivo
Experimental: as §3
(§4) Mice were injected with 225 μCi of [^125I]FIAU via the tail vein and imaged at various time points thereafter. Before imaging, mice were anesthetized via s.c. administration of acepromazine and ketamine. Each scan took min with a dedicated small-animal single-photon emission computed tomography (SPECT)/computed tomography (CT) camera (Gamma Medica X-SPECT, Northridge, Calif.) in planar acquisition mode using a low-energy high-resolution (LEHR) parallel-hole collimator. For each bacterial strain used, at least two mice were injected and imaged. To obtain SPECT/CT images, animals were first scanned for ≈40 min by using a small-animal SPECT camera in tomographic acquisition mode, using two LEHR parallel-hole collimators. The animals then underwent CT by using appropriate fiducial markers that allowed coregistration.
Accordingly, this time point was chosen for detailed analyses. Biodistribution studies were performed in mice injected with 1×10^8 S. aureus 25923 into one thigh. Six hours later, the mice were injected with 2 μCi of [^125I]FIAU, and, after another 24 h, the mice were killed, their organs were harvested, and radioactivity was determined. […]

WT E. coli = assay: In vivo imaging of WT E. coli thigh infection in mice; parameters: species or system Escherichia coli
Experimental: as §3, §4
[^125I]FIAU was synthesized by standard methods and injected i.v. into animals 6 h after intramuscular inoculations of bacteria into the thighs of mice. […] Signals from the infectious lesions could be seen as early as 2 h after injection of [^125I]FIAU and were optimal 16 h after injection.

[3] = system: Streptococcus pneumoniae 49619; assay: In vivo imaging of S. pneumoniae thigh infection in mice; conditions: mouse thigh infection
Experimental: as §3
(§5) Mice were injected with 225 μCi of [^125I]FIAU via the tail vein and imaged at various time points thereafter. Before imaging, mice were anesthetized via s.c. administration of acepromazine and ketamine. Each scan took min with a dedicated small-animal single-photon emission computed tomography (SPECT)/computed tomography (CT) camera (Gamma Medica X-SPECT, Northridge, Calif.) in planar acquisition mode using a low-energy high-resolution (LEHR) parallel-hole collimator. […]

[4] = system: TK-deficient (TK−) strain of E. coli; assay: In vivo imaging of TK- E. coli thigh infection in mice; parameters: species or system Escherichia coli; conditions: same mice, opposite thighs
Experimental: as §3, §5

[5] = system: Enterococcus faecalis 49532; assay: In vivo imaging of E. faecalis thigh infection in mice; conditions: mouse thigh infection
Experimental: as §3, §5

C. novyi-NT [6] = assay: Imaging of intratumoral C. novyi-NT infection in tumor-bearing mice; type: in vivo, Clostridium novyi-NT
Experimental: All animal experiments were overseen and approved by the Animal Welfare Committee of The John Hopkins University and were in compliance with university standards. Six- to 8-wk-old athymic nu/nu or BALB/c mice, purchased from Harlan Bioproducts for Science (Indianapolis), were used for tumor implantation studies. Five million cells were injected s.c. into the right flank of each mouse. Tumor volume was calculated as length×width^2×0.5, and mice were treated with Clostridium novyi-NT spores when tumors occupied ˜250 mm^3. C. novyi-NT spores were prepared as described (15), and mice were i.v. injected with 300 million spores suspended in 250 μl of PBS.
as §4
BALB/c mice bearing CT-26 mouse colon tumors were treated with a single i.v. injection of C. novyi-NT and [^125I]FIAU was administered 24 h later.
For in vivo studies, FIAU was labeled with 1-125. The optimal time course for imaging mice harboring HCTZ 16 colon cancer xenografts was determined empirically by varying the time of injection of FIAU in relation to C. novyi-NT. Biodistribution studies were performed in 12 athymic nu/nu mice harboring HCTZ 16 xenografts ˜350-400 mm^3, six of which were injected with 300 million C. novyi-NT spores 24 hrs prior to 2 uCi of 1-125 FIAU. Eight hours after I-125 FIAU injection, all twelve mice were euthanized by cervical dislocation and the brain, lungs, heart, blood, small and large intestine, liver, kidneys, muscle and tumor were harvested and weighed. The activity in each tissue was measured using an automated gamma counter (LKB Wallace 1282 Compugamma CS Universal Gamma Counter). The percent-injected dose per gram of tissue (% ID/g) was calculated by comparison with samples of a standard dilution of the initial dose. […]

[7] = system: Staphylococcus aureus 29213 and 25923; assay: In vivo imaging of S. aureus thigh infection in mice; conditions: mouse thigh infection
Experimental: as §3, §5

[8] = system: Staphylococcus epidermidis F362; assay: In vivo imaging of S. epidermidis thigh infection in mice; conditions: mouse thigh infection
Experimental: as §3, §5

[9] = BALB/c mice, CT-26 tumors, tracer 24 h after C. novyi-NT i.v.

O=c1[nH]c(=O)n([C@@H]2O[C@H](CO)[C@@H](O)[C@@H]2F)cc1I [FIAU, 1-(2′-deoxy-2′-fluoro-β-D-arabinofuranosyl)-5-iodouracil]
Susceptibility of E. coli to nucleoside analog (growth inhibition) (Escherichia coli): quite sensitive
log10 IC50 (M) (Escherichia coli; wild type E. coli, Lauria Broth, overnight, OD600): -10
minimum inhibitory concentration 50 (MIC50) (C. novyi-NT [1]): ~20 µg/mL (≈ 53.8 µM)
Susceptibility of TK gene-deleted E. coli derivative (TK deficient E. coli): highly resistant
Growth inhibition of TK deficient E. coli (TK deficient E. coli; two-fold serial dilutions, overnight, OD600): not inhibited at any concentration

Cc1cn([C@H]2C[C@H](N=[N+]=[N-])[C@@H](CO)O2)c(=O)[nH]c1=O [Zidovudine]
Susceptibility of E. coli to nucleoside analog (growth inhibition) (Escherichia coli): quite sensitive
Susceptibility of TK gene-deleted E. coli derivative (TK deficient E. coli): moderately resistant

O=c1[nH]c(=O)n([C@@H]2O[C@H](CO)[C@@H](O)[C@@H]2F)cc1[125I] [[^125I]FIAU, 2′-fluoro-2′deoxy-1-beta-D-arabinofuranosyl-5-iodo-uracil]
Minimal number of bacteria producing discernable signals (S. aureus 25923): 2×10^6 colony-forming units per gram of muscle tissue
Signal-to-noise ratio in infectious foci 24 h after administration ([2]; 24 h after administration): high signal-to-noise ratios
Signal-to-noise ratio by 48 h after administration ([2]; 48 h after administration of the tracer): very high signal-to-noise ratios
Earliest time at which robust signals could be observed after administration ([2]; mouse thigh infections, patient-derived strains): 4 h
Earliest time at which signals from infectious lesions could be seen after injection (WT E. coli; WT E. coli thigh infection): 2 h
Time after injection at which signals were optimal (WT E. coli; WT E. coli thigh infection): 16 h
Uptake within infected thighs (whole-body planar scintigram) (WT E. coli; tracer i.v. 6 h after i.m. inoculation): demonstrated the uptake
Imaging of infectious foci due to S. pneumoniae [3]: readily imaged
Uptake in thighs inoculated with TK- E. coli [4]: no discernable uptake
Imaging of infectious foci due to E. faecalis [5]: readily imaged
Earliest time at which tumors could be visualized after injection of tracer (C. novyi-NT [6]; [9]): 16 h
Time of maximum uptake after injection (C. novyi-NT [6]; [9]): 24 to 48 h
Uptake in tumors not treated with C. novyi-NT (C. novyi-NT [6]; CT-26 tumors, no C. novyi-NT): No uptake
Imaging of tumor types responsive to bacteriolytic therapy (C. novyi-NT [6]; HCT116, HuCCTI or CT26 tumors, after C. novyi-NT spores): able to be imaged
Imaging of infectious foci due to S. aureus [7]: readily imaged
Imaging of infectious foci due to S. epidermidis [8]: readily imaged

Nc1nc2c(ncn2COC(CO)CO)c(=O)[nH]1 [genciclovir]
Susceptibility of E. coli to nucleoside analog (growth inhibition) (Escherichia coli): resistant

Nc1nc2c(ncn2CCC(CO)CO)c(=O)[nH]1 [penciclovir]
Susceptibility of E. coli to nucleoside analog (growth inhibition) (Escherichia coli): resistant
